Reference: patent US11331369B2, “Endoparasitic depsipeptides” (Zoetis Services LLC, priority 2017, dated 2022)

Tested on: microfilariae of Dirofilaria immitis
Test: Dirofilaria immitis, Microfilaria (DiMF) In vitro Assay
Type: cell-based
Details: 72 h, read-out: DiMF Minimum Effective Dose (MED), approximately 72 hours incubation, microfilariae assessed for survival or paralysis

SMILES | minimal effective concentration [µM]
CC(C)C[C@H]1C(=O)O[C@H](Cc2ccc(Cn3ccc(C#N)n3)cc2)C(=O)N(C)[C@@H](CC(C)C)C(=O)O[C@H](C)C(=O)N(C)[C@@H](CC(C)C)C(=O)O[C@H](Cc2ccc(Cn3ccc(C#N)n3)cc2)C(=O)N(C)[C@@H](CC(C)C)C(=O)O[C@H](C)C(=O)N1C [Example 1b-103, 1,1′-(((((2R,5S,8R,11S,14R,17S,20R,23S)-5,11,17,23-tetraisobutyl-4,8,10,16,20,22-hexamethyl-3,6,9,12,15,18,21,24-octaoxo-1,7,13,19-tetraoxa-4,10,16,22-tetraazacyclotetracosane-2,14-diyl)bis(methylene))bis(4,1-phenylene))bis(methylene))bis(1H-pyrazole-3-carbonitrile)] | 0.001 to 0.01
CC(C)C[C@H]1C(=O)O[C@H](Cc2ccc(Cn3ccc(N4CCOCC4)n3)cc2)C(=O)N(C)[C@@H](CC(C)C)C(=O)O[C@H](C)C(=O)N(C)[C@@H](CC(C)C)C(=O)O[C@H](Cc2ccc(Cn3ccc(N4CCOCC4)n3)cc2)C(=O)N(C)[C@@H](CC(C)C)C(=O)O[C@H](C)C(=O)N1C [Example 1b-105, (3S,6R,9S,12R,15S,18R,21S,24R)-3,9,15,21-tetraisobutyl-4,6,10,16,18,22-hexamethyl-12,24-bis(4-((3-morpholino-1H-pyrazol-1-yl)methyl)benzyl)-1,7,13,19-tetraoxa-4,10,16,22-tetraazacyclotetracosan-2,5,8,11,14,17,20,23-octaone] | 0.001 to 0.01
CC(C)C[C@H]1C(=O)O[C@H](Cc2ccc(Cn3ccc(C4CCC4)n3)cc2)C(=O)N(C)[C@@H](CC(C)C)C(=O)O[C@H](C)C(=O)N(C)[C@@H](CC(C)C)C(=O)O[C@H](Cc2ccc(Cn3ccc(C4CCC4)n3)cc2)C(=O)N(C)[C@@H](CC(C)C)C(=O)O[C@H](C)C(=O)N1C [Example 1b-106, (3S,6R,9S,12R,15S,18R,21S,24R)-6,18-bis(4-((3-cyclobutyl-1H-pyrazol-1-yl)methyl)benzyl)-3,9,15,21-tetraisobutyl-4,10,12,16,22,24-hexamethyl-1,7,13,19-tetraoxa-4,10,16,22-tetraazacyclotetracosan-2,5,8,11,14,17,20,23-octaone] | 0.01 to 0.1
CC(C)C[C@H]1C(=O)O[C@H](Cc2ccc(Cn3ccc(-c4ccoc4)n3)cc2)C(=O)N(C)[C@@H](CC(C)C)C(=O)O[C@H](C)C(=O)N(C)[C@@H](CC(C)C)C(=O)O[C@H](Cc2ccc(Cn3ccc(-c4ccoc4)n3)cc2)C(=O)N(C)[C@@H](CC(C)C)C(=O)O[C@H](C)C(=O)N1C [Example 1b-111, (3S,6R,9S,12R,15S,18R,21S,24R)-6,18-bis(4-((3-(furan-3-yl)-1H-pyrazol-1-yl)methyl)benzyl)-3,9,15,21-tetraisobutyl-4,10,12,16,22,24-hexamethyl-1,7,13,19-tetraoxa-4,10,16,22-tetraazacyclotetracosan-2,5,8,11,14,17,20,23-octaone] | 0.01 to 0.1
CC(C)C[C@H]1C(=O)O[C@H](Cc2ccc(Cn3cc(C4CCOCC4)cn3)cc2)C(=O)N(C)[C@@H](CC(C)C)C(=O)O[C@H](C)C(=O)N(C)[C@@H](CC(C)C)C(=O)O[C@H](Cc2ccc(Cn3cc(C4CCOCC4)cn3)cc2)C(=O)N(C)[C@@H](CC(C)C)C(=O)O[C@H](C)C(=O)N1C [Example 1b-116, (3S,6R,9S,12R,15S,18R,21S,24R)-3,9,15,21-tetraisobutyl-4,6,10,16,18,22-hexamethyl-12,24-bis(4-((4-(tetrahydro-2H-pyran-4-yl)-1H-pyrazol-1-yl)methyl)benzyl)-1,7,13,19-tetraoxa-4,10,16,22-tetraazacyclotetracosan-2,5,8,11,14,17,20,23-octaone] | 0.01 to 0.1
Cc1nn(Cc2ccc(C[C@H]3OC(=O)[C@H](CC(C)C)N(C)C(=O)[C@@H](C)OC(=O)[C@H](CC(C)C)N(C)C(=O)[C@@H](Cc4ccc(Cn5nc(C)c(C#N)c5C)cc4)OC(=O)[C@H](CC(C)C)N(C)C(=O)[C@@H](C)OC(=O)[C@H](CC(C)C)N(C)C3=O)cc2)c(C)c1C#N [Example 1b-117, 1,1′-(((((2R,5S,8R,11S,14R,17S,20R,23S)-5,11,17,23-tetraisobutyl-4,8,10,16,20,22-hexamethyl-3,6,9,12,15,18,21,24-octaoxo-1,7,13,19-tetraoxa-4,10,16,22-tetraazacyclotetracosane-2,14-diyl)bis(methylene))bis(4,1-phenylene))bis(methylene))bis(3,5-dimethyl-1H-pyrazole-4-carbonitrile)] | 0.01 to 0.1
CC(C)C[C@H]1C(=O)O[C@H](Cc2ccc(Cn3ccc(-c4ccccn4)n3)cc2)C(=O)N(C)[C@@H](CC(C)C)C(=O)O[C@H](C)C(=O)N(C)[C@@H](CC(C)C)C(=O)O[C@H](Cc2ccc(Cn3ccc(-c4ccccn4)n3)cc2)C(=O)N(C)[C@@H](CC(C)C)C(=O)O[C@H](C)C(=O)N1C [Example 1b-120, (3S,6R,9S,12R,15S,18R,21S,24R)-3,9,15,21-tetraisobutyl-4,6,10,16,18,22-hexamethyl-12,24-bis(4-((3-(pyridin-2-yl)-1H-pyrazol-1-yl)methyl)benzyl)-1,7,13,19-tetraoxa-4,10,16,22-tetraazacyclotetracosan-2,5,8,11,14,17,20,23-octaone] | 0.01 to 0.1
Cc1c(CO)nn(Cc2ccc(C[C@H]3OC(=O)[C@H](CC(C)C)N(C)C(=O)[C@@H](C)OC(=O)[C@H](CC(C)C)N(C)C(=O)[C@@H](Cc4ccc(Cn5nc(CO)c(C)c5C(F)(F)F)cc4)OC(=O)[C@H](CC(C)C)N(C)C(=O)[C@@H](C)OC(=O)[C@H](CC(C)C)N(C)C3=O)cc2)c1C(F)(F)F [Example 1b-124, (3S,6R,9S,12R,15S,18R,21S,24R)-6,18-bis(4-((3-(hydroxymethyl)-4-methyl-5-(trifluoromethyl)-1H-pyrazol-1-yl)methyl)benzyl)-3,9,15,21-tetraisobutyl-4,10,12,16,22,24-hexamethyl-1,7,13,19-tetraoxa-4,10,16,22-tetraazacyclotetracosan-2,5,8,11,14,17,20,23-octaone] | 0.01 to 0.1
CCc1nn(Cc2ccc(C[C@H]3OC(=O)[C@H](CC(C)C)N(C)C(=O)[C@@H](C)OC(=O)[C@H](CC(C)C)N(C)C(=O)[C@@H](Cc4ccc(Cn5nc(CC)c(N)c5CC)cc4)OC(=O)[C@H](CC(C)C)N(C)C(=O)[C@@H](C)OC(=O)[C@H](CC(C)C)N(C)C3=O)cc2)c(CC)c1N [Example 1b-133, (3S,6R,9S,12R,15S,18R,21S,24R)-6,18-bis(4-((4-amino-3,5-diethyl-1H-pyrazol-1-yl)methyl)benzyl)-3,9,15,21-tetraisobutyl-4,10,12,16,22,24-hexamethyl-1,7,13,19-tetraoxa-4,10,16,22-tetraazacyclotetracosan-2,5,8,11,14,17,20,23-octaone] | 0.01 to 0.1
Cc1nn(Cc2ccc(C[C@H]3OC(=O)[C@H](CC(C)C)N(C)C(=O)[C@@H](C)OC(=O)[C@H](CC(C)C)N(C)C(=O)[C@@H](Cc4ccc(Cn5cc(C#N)c(C)n5)cc4)OC(=O)[C@H](CC(C)C)N(C)C(=O)[C@@H](C)OC(=O)[C@H](CC(C)C)N(C)C3=O)cc2)cc1C#N [Example 1b-135, 1,1′-(((((2R,5S,8R,11S,14R,17S,20R,23S)-5,11,17,23-tetraisobutyl-4,8,10,16,20,22-hexamethyl-3,6,9,12,15,18,21,24-octaoxo-1,7,13,19-tetraoxa-4,10,16,22-tetraazacyclotetracosane-2,14-diyl)bis(methylene))bis(4,1-phenylene))bis(methylene))bis(3-methyl-1H-pyrazole-4-carbonitrile)] | 0.001 to 0.01
CC(C)C[C@H]1C(=O)O[C@H](Cc2ccc(Cn3ccc(-c4ccncc4)n3)cc2)C(=O)N(C)[C@@H](CC(C)C)C(=O)O[C@H](C)C(=O)N(C)[C@@H](CC(C)C)C(=O)O[C@H](Cc2ccc(Cn3ccc(-c4ccncc4)n3)cc2)C(=O)N(C)[C@@H](CC(C)C)C(=O)O[C@H](C)C(=O)N1C [Example 1b-138, (3S,6R,9S,12R,15S,18R,21S,24R)-3,9,15,21-tetraisobutyl-4,6,10,16,18,22-hexamethyl-12,24-bis(4-((3-(pyridin-4-yl)-1H-pyrazol-1-yl)methyl)benzyl)-1,7,13,19-tetraoxa-4,10,16,22-tetraazacyclotetracosan-2,5,8,11,14,17,20,23-octaone] | 0.01 to 0.1
CC(C)C[C@H]1C(=O)O[C@H](Cc2ccc(Cn3ccc(-c4cccnc4)n3)cc2)C(=O)N(C)[C@@H](CC(C)C)C(=O)O[C@H](C)C(=O)N(C)[C@@H](CC(C)C)C(=O)O[C@H](Cc2ccc(Cn3ccc(-c4cccnc4)n3)cc2)C(=O)N(C)[C@@H](CC(C)C)C(=O)O[C@H](C)C(=O)N1C [Example 1b-139, (3S,6R,9S,12R,15S,18R,21S,24R)-3,9,15,21-tetraisobutyl-4,6,10,16,18,22-hexamethyl-12,24-bis(4-((3-(pyridin-3-yl)-1H-pyrazol-1-yl)methyl)benzyl)-1,7,13,19-tetraoxa-4,10,16,22-tetraazacyclotetracosan-2,5,8,11,14,17,20,23-octaone] | 0.01 to 0.1
CC(C)C[C@H]1C(=O)O[C@H](Cc2ccc(Cn3cc(OC(F)F)cn3)cc2)C(=O)N(C)[C@@H](CC(C)C)C(=O)O[C@H](C)C(=O)N(C)[C@@H](CC(C)C)C(=O)O[C@H](Cc2ccc(Cn3cc(OC(F)F)cn3)cc2)C(=O)N(C)[C@@H](CC(C)C)C(=O)O[C@H](C)C(=O)N1C [Example 1b-140, (3S,6R,9S,12R,15S,18R,21S,24R)-6,18-bis(4-((4-(difluoromethoxy)-1H-pyrazol-1-yl)methyl)benzyl)-3,9,15,21-tetraisobutyl-4,10,12,16,22,24-hexamethyl-1,7,13,19-tetraoxa-4,10,16,22-tetraazacyclotetracosan-2,5,8,11,14,17,20,23-octaone] | 0.01 to 0.1
CC(C)C[C@H]1C(=O)O[C@H](Cc2ccc(Cn3cc(OC4CCC4)cn3)cc2)C(=O)N(C)[C@@H](CC(C)C)C(=O)O[C@H](C)C(=O)N(C)[C@@H](CC(C)C)C(=O)O[C@H](Cc2ccc(Cn3cc(OC4CCC4)cn3)cc2)C(=O)N(C)[C@@H](CC(C)C)C(=O)O[C@H](C)C(=O)N1C [Example 1b-141, (3S,6R,9S,12R,15S,18R,21S,24R)-6,18-bis(4-((4-cyclobutoxy-1H-pyrazol-1-yl)methyl)benzyl)-3,9,15,21-tetraisobutyl-4,10,12,16,22,24-hexamethyl-1,7,13,19-tetraoxa-4,10,16,22-tetraazacyclotetracosan-2,5,8,11,14,17,20,23-octaone] | 0.01 to 0.1
